Data reported in patent publication US4876248A, “Anti-inflammatory products derived from methylene-diphosphonic acid, and process for their preparation” (priority 1982, dated 1989).
Structures can show the parent of a compound that is named as a salt.

tested on: Adjuvant arthritis; test: Adjuvant arthritis in the rat (in vivo study), weight of the paw; parameters: species or system rat (male Sprague-Dawley); settings: 10 mg/kg per day cutaneously, 6 days per week, 3 weeks, started 15 days after Mycobacterium tuberculosis injection, right rear paw

Going from `O=P(O)(O)C(Sc1ccccc1Cl)P(=O)(O)O` [SR 41 689] to `Nc1ccccc1SC(P(=O)(O)O)P(=O)(O)O` [SR 41 388], the “Adjuvant arthritis, weight of the paw % inhibition (difference in average paw weight of treated arthritic rats relative to reference arthritic rats)” value rises from 31% to 42%.

First: O=P(O)(O)C(CCCSc1ccccc1)P(=O)(O)O [SR 41 342, Di-(tertiarybutylamine salt) of 4-phenylthio-butylidene-1,1-diphosphonic acid]
Second: O=P(O)(O)C(O)(CCSc1ccccc1)P(=O)(O)O [SR 42 017]
The “Adjuvant arthritis, weight of the paw % inhibition (difference in average paw weight of treated arthritic rats relative to reference arthritic rats)” value of the first is lower: 38% for the first, 49% for the second.

Compared with `O=P(O)(O)C(CCCCSc1ccccn1)P(=O)(O)O` [SR 42 099, 5-(pyrid-2-yl-thio)-pentylidene-1,1-diphosphonic acid], `O=P(O)(O)C(Sc1ccccn1)P(=O)(O)O` [SR 41 179] is lower in “Adjuvant arthritis, weight of the paw % inhibition (difference in average paw weight of treated arthritic rats relative to reference arthritic rats)” value: 44% for the first, 25% for the second.

Going from `NCCSC(P(=O)(O)O)P(=O)(O)O` [SR 41 266] to `CN(C)CCSC(P(=O)(O)O)P(=O)(O)O` [SR 41 344], the “Adjuvant arthritis, weight of the paw % inhibition (difference in average paw weight of treated arthritic rats relative to reference arthritic rats)” value rises from 29% to 35%.

Compared with `O=P(O)(O)C(Sc1nc2ccccc2s1)P(=O)(O)O` [SR 41 481, Tri-(tertiarybutylamine) salt of benzothiazol-2-yl-thiomethylene-diphosphonic acid], `O=P(O)(O)C(Sc1nc2ccccc2[nH]1)P(=O)(O)O` [SR 41 263] is lower in “Adjuvant arthritis, weight of the paw % inhibition (difference in average paw weight of treated arthritic rats relative to reference arthritic rats)” value: 40% for the first, 19% for the second.

Going from `O=P(O)(O)C(O)(CCCCSc1ccc(F)cc1)P(=O)(O)O` [SR 41 909, Di-(tertiarybutylamine) salt of 5-(4-fluorophenylthio)-1-hydroxy-pentylidene-1,1-diphosphonic acid] to `O=P(O)(O)C(O)(CCCCSc1ccc(Cl)cc1)P(=O)(O)O` [SR 42 016], the “Adjuvant arthritis, weight of the paw % inhibition (difference in average paw weight of treated arthritic rats relative to reference arthritic rats)” value falls from 53% to 48%.

Compared with `CC(C)SC(P(=O)(O)O)P(=O)(O)O` [SR 41 100], `CSC(P(=O)(O)O)P(=O)(O)O` [SR 41 036, Tri-(tertiary butylamine) salt of methylthio-methylene-diphosphonic acid] is lower in “Adjuvant arthritis, weight of the paw % inhibition (difference in average paw weight of treated arthritic rats relative to reference arthritic rats)” value: 37% for the first, 23% for the second.

Going from `O=P(O)(O)C(CCCCCCSc1ccc(Cl)cc1)P(=O)(O)O` [SR 41 959] to `O=P(O)(O)C(O)(CCCSc1ccc(Cl)cc1)P(=O)(O)O` [SR 41 903, Di-(tertiarybutylamine) salt of 4-(4-chlorophenylthio)-1-hydroxy-butylidene-1,1-diphosphonic acid], the “Adjuvant arthritis, weight of the paw % inhibition (difference in average paw weight of treated arthritic rats relative to reference arthritic rats)” value falls from 60% to 55%.

Compared with `CC(C)OP(=O)(OC(C)C)C(Sc1ccccc1C(=O)O)P(=O)(OC(C)C)OC(C)C` [SR 41 452], `CC(C)OP(=O)(OC(C)C)C(CCCSc1ccccc1)P(=O)(OC(C)C)OC(C)C` [SR 41 341, Tetraisopropyl 4-phenylthio-butylene-1,1-diphosphonate] is higher in “Adjuvant arthritis, weight of the paw % inhibition (difference in average paw weight of treated arthritic rats relative to reference arthritic rats)” value: 15% for the first, 24% for the second.

Compared with `CCCSCCCCCC(O)(P(=O)(O)O)P(=O)(O)O` [SR 42 015], `CCCCCSCCCC(O)(P(=O)(O)O)P(=O)(O)O` [SR 41 961] is higher in “Adjuvant arthritis, weight of the paw % inhibition (difference in average paw weight of treated arthritic rats relative to reference arthritic rats)” value: 47% for the first, 53% for the second.

Going from `O=P(O)(O)C(CCCCS)P(=O)(O)O` [SR 41 527, Di-(tertiarybutylalmine) salt of 5-mercapto-pentylidene-1,1-diphosphonic acid] to `CSCCC(P(=O)(O)O)P(=O)(O)O` [SR 41 273, Tertiary butylamine salt of 3-methylthio-propylidene-1,1-diphosphonic acid], the “Adjuvant arthritis, weight of the paw % inhibition (difference in average paw weight of treated arthritic rats relative to reference arthritic rats)” value rises from 34% to 39%.

First: O=P(O)(O)C(Sc1ncccn1)P(=O)(O)O [SR 41 264]
Second: O=P(O)(O)C(Sc1cccs1)P(=O)(O)O [SR 41 549, thien-2-yl-thiomethylene-diphosphonic acid]
The “Adjuvant arthritis, weight of the paw % inhibition (difference in average paw weight of treated arthritic rats relative to reference arthritic rats)” value of the first is higher: 43% for the first, 34% for the second.

Going from `O=P(O)(O)C(Sc1nc2cc(Cl)ccc2[nH]1)P(=O)(O)O` [SR 41 480] to `O=P(O)(O)C(Sc1ccccc1)P(=O)(O)O` [SR 41 482], the “Adjuvant arthritis, weight of the paw % inhibition (difference in average paw weight of treated arthritic rats relative to reference arthritic rats)” value rises from 40% to 41%.

Compared with `CCCCCCCSC(P(=O)(O)O)P(=O)(O)O` [SR 41 552], `CCCCCCCCSC(P(=O)(O)O)P(=O)(O)O` [SR 41 421] is higher in “Adjuvant arthritis, weight of the paw % inhibition (difference in average paw weight of treated arthritic rats relative to reference arthritic rats)” value: 36% for the first, 55% for the second.

First: CCCCCCCCCCCCCCCCSC(P(=O)(O)O)P(=O)(O)O [SR 41 453, Monoammonium hexadecylthiomethylene-diphosphonate]
Second: CSCCCCCCCCCCC(O)(P(=O)(O)O)P(=O)(O)O [SR 42 097]
The “Adjuvant arthritis, weight of the paw % inhibition (difference in average paw weight of treated arthritic rats relative to reference arthritic rats)” value of the first is higher: 58% for the first, 50% for the second.

With `CCCCCCCCSC(P(=O)(OC(C)C)OC(C)C)P(=O)(OC(C)C)OC(C)C` [SR 41 454, Tetraisopropyl n-octylthiomethylene-diphosphonate] the “Adjuvant arthritis, weight of the paw % inhibition (difference in average paw weight of treated arthritic rats relative to reference arthritic rats)” value was 33%.
